The Ki is the equilibrium dissociation constant of an inhibitor or competing ligand from its target. Usually IC50 stands for the point on the concentration scale where inhibition reaches its midpoint.

Structures are written as SMILES. Where only a bound is given, the exact number is not on record here.

The target of the first assay is T1, rat mGluR5 receptor (Rattus norvegicus, UniProt P31424).
T1 construct: expressed in transfected cells; host or cells: HEK-293
T1 sequence (P31424 21-1203): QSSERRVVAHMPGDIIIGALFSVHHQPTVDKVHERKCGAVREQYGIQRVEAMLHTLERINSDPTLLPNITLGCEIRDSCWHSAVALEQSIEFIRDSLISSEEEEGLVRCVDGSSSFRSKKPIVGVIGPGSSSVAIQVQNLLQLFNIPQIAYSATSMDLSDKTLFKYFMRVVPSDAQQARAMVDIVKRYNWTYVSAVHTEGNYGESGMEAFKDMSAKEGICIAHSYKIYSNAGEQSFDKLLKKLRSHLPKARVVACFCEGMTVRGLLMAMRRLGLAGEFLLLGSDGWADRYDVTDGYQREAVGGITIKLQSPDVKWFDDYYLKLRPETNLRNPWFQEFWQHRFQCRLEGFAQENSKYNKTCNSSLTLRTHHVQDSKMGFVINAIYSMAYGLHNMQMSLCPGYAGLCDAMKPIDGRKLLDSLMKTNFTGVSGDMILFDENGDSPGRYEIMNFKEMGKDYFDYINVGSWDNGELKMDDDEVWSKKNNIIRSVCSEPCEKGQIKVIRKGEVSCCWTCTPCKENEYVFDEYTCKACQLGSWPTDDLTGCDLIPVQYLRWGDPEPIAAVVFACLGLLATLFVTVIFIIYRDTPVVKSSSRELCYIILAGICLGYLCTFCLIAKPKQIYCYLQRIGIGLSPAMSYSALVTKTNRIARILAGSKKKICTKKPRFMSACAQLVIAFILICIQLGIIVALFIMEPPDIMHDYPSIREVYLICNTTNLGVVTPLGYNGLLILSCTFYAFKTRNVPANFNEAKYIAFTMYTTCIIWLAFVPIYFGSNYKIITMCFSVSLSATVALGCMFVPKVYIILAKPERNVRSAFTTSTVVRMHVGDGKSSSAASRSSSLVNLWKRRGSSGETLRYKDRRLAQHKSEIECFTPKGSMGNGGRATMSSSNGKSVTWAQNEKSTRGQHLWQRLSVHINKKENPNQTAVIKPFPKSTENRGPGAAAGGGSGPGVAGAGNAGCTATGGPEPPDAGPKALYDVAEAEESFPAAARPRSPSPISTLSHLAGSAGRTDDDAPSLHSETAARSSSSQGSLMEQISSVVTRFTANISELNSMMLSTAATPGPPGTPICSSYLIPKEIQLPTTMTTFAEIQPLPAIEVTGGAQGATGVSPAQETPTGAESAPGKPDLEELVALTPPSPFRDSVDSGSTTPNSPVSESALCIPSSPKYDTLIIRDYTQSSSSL
The assay is described as follows: [3H]-MPEP displacement binding assay, HEK-293 cell membranes expressing rat mGluR5. The settings on record: [3H]-MPEP 4 nM; Table 7A; read-out: Median Ki. Summed up:
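Membranes from HEK-293 cells expressing rat mGluR5 (12-25 μg protein), incubated 60 min at room temperature with 4 nM [3H]-MPEP in 50 mM Tris pH 7.5, then filtered. Nonspecific binding defined with 10 μM MPEP.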
On to `COc1ccc(C(=O)N2CCN(c3ccccn3)CC2)cc1/C=C/c1ccccc1` [Compound 182, 1-{4-methoxy-3-[(E)-2-phenylvinyl]benzoyl}-4-pyridin-2-ylpiperazine], for which the Ki amounted to 827 nM.

Staying with this assay, now noted: [3H]-MPEP displacement, rat mGluR5; no Ki given; read-out: IC50 (printed in the Median Ki column instead of a Ki).
For `COc1ccc(C(=O)N2CCN(S(=O)(=O)Cc3ccccc3)CC2)cc1C#Cc1ccccn1` [Compound 234, 1-(benzylsulfonyl)-4-[4-methoxy-3-(pyridin-2-ylethynyl)benzoyl]piperazine], the IC50 is over 10000 nM.
Regarding `COc1ccc(C(=O)N2CCN(c3ccc(F)cc3S(C)(=O)=O)CC2)cc1C#Cc1ccccn1` [Compound 240, 1-[4-fluoro-2-(methylsulfonyl)phenyl]-4-[4-methoxy-3-(pyridin-2-ylethynyl)benzoyl]piperazine], the IC50 is over 10000 nM.
Turning to `COc1ccc(C(=O)N2CCN(S(=O)(=O)c3ccc(-n4cnnn4)c(OC)c3)CC2)cc1C#Cc1ccccn1` [Compound 272, 1-[4-methoxy-3-(pyridin-2-ylethynyl)benzoyl]-4-{[3-methoxy-4-(1H-tetrazol-1-yl)phenyl]sulfonyl}piperazine], the IC50 is over 10000 nM.
On the same count and under the same terms, the same measure for `COc1ccc(C(=O)N2CCN(c3nc4ccc([N+](=O)[O-])cc4s3)CC2)cc1C#Cc1ccccn1` [Compound 282, 2-{4-[4-methoxy-3-(pyridin-2-ylethynyl)benzoyl]piperazin-1-yl}-6-nitro-1,3-benzothiazole]: over 10000 nM.

Still in this assay, the particulars now being: [3H]-MPEP displacement, rat mGluR5; read-out: Median Ki.
Turning to `COc1ccc(C(=O)N2CCCN(c3ccc(C#N)cn3)CC2)cc1C#Cc1ccccn1` [Compound 202, 6-{4-[4-methoxy-3-(pyridin-2-ylethynyl)benzoyl]-1,4-diazepan-1-yl}nicotinonitrile], the Ki was found to be 1040 nM.
Still for that read-out and setting: the value for `COc1ccc(C(=O)N2CCCN(c3ncccc3C(F)(F)F)CC2)cc1C#Cc1ccccn1` [Compound 209, 1-[4-methoxy-3-(pyridin-2-ylethynyl)benzoyl]-4-[3-(trifluoromethyl)pyridin-2-yl]-1,4-diazepane] was 674 nM; that for `COc1ccc(C(=O)N2CCCN(c3ccc(C(F)(F)F)cn3)CC2)cc1C#Cc1ccccn1` [Compound 210, 1-[4-methoxy-3-(pyridin-2-ylethynyl)benzoyl]-4-[5-(trifluoromethyl)pyridin-2-yl]-1,4-diazepane] was 851 nM.
For `COc1ccc(C(=O)N2CCCN(c3cccc(C)n3)CC2)cc1C#Cc1ccccn1` [Compound 211, 1-[4-methoxy-3-(pyridin-2-ylethynyl)benzoyl]-4-(6-methylpyridin-2-yl)-1,4-diazepane], the inhibition constant (Ki) was found to be 619 nM.
Still for that read-out and setting: the same measure for `COc1ccc(C(=O)N2CCCN(c3ncc(C(F)(F)F)cc3Cl)CC2)cc1C#Cc1ccccn1` [Compound 212, 1-[3-chloro-5-(trifluoromethyl)pyridin-2-yl]-4-[4-methoxy-3-(pyridin-2-ylethynyl)benzoyl]-1,4-diazepane]: 704 nM; for `COc1ccc(C(=O)N2CCCN(c3ncccc3C#N)CC2)cc1C#Cc1ccccn1` [Compound 214, 2-{4-[4-methoxy-3-(pyridin-2-ylethynyl)benzoyl]-1,4-diazepan-1-yl}nicotinonitrile]: 458 nM.
For `COc1ccc(C(=O)N2CCCN(c3ccc([N+](=O)[O-])cn3)CC2)cc1C#Cc1ccccn1` [Compound 215, 1-[4-methoxy-3-(pyridin-2-ylethynyl)benzoyl]-4-(5-nitropyridin-2-yl)-1,4-diazepane], the Ki was found to be 2190 nM.
The same measure, in the same setting: the same measure for `COc1ccc(C(=O)N2CCN(S(=O)(=O)c3ccccc3)CC2)cc1C#Cc1ccccn1` [Compound 224, 1-[4-methoxy-3-(pyridin-2-ylethynyl)benzoyl]-4-(phenylsulfonyl)piperazine]: 115 nM.
On the same count and under the same terms, the same measure for `COc1ccc(C(=O)N2CCN(c3ccc(C(F)(F)F)cc3)CC2)cc1C#Cc1ccccn1` [Compound 228, 1-[4-methoxy-3-(pyridin-2-ylethynyl)benzoyl]-4-[4-(trifluoromethyl)phenyl]piperazine]: 674 nM; for `COc1ccc(C(=O)N2CCN(c3ccccc3OC)CC2)cc1C#Cc1ccccn1` [Compound 230, 1-(2-methoxyphenyl)-4-[4-methoxy-3-(pyridin-2-ylethynyl)benzoyl]piperazine]: 734 nM.
Regarding `COc1ccc(C(=O)N2CCN(c3ccc(S(C)(=O)=O)cc3)CC2)cc1C#Cc1ccccn1` [Compound 238, 1-[4-methoxy-3-(pyridin-2-ylethynyl)benzoyl]-4-[4-(methylsulfonyl)phenyl]piperazine], the inhibitory constant (Ki) amounted to 521 nM.
Regarding `COc1ccc(C(=O)N2CCN(S(=O)(=O)c3ccc(Cl)c(Cl)c3)CC2)cc1C#Cc1ccccn1` [Compound 239, 1-[(3,4-dichlorophenyl)sulfonyl]-4-[4-methoxy-3-(pyridin-2-ylethynyl)benzoyl]piperazine], the inhibition constant Ki turned out to be 1410 nM.
Same read-out and setting: the same measure for `COc1ccc(C(=O)N2CCN(c3cc(C)ccc3C)CC2)cc1C#Cc1ccccn1` [Compound 242, 1-(2,5-dimethylphenyl)-4-[4-methoxy-3-(pyridin-2-ylethynyl)benzoyl]piperazine]: 1010 nM; for `COc1ccc(C(=O)N2CCN(c3ccccc3C(F)(F)F)CC2)cc1C#Cc1ccccn1` [Compound 246, 1-[4-methoxy-3-(pyridin-2-ylethynyl)benzoyl]-4-[2-(trifluoromethyl)phenyl]piperazine]: 2840 nM.
On the same count and under the same terms, the same measure for `COc1ccc(C(=O)N2CCN(C(=O)C3CCCO3)CC2)cc1C#Cc1ccccn1` (stereo not drawn) [Compound 249, 1-[4-methoxy-3-(pyridin-2-ylethynyl)benzoyl]-4-(tetrahydrofuran-2-ylcarbonyl)piperazine]: 181 nM.
As to `COc1ccc(C(=O)N2CCN(c3sc(S(N)(=O)=O)cc3[N+](=O)[O-])CC2)cc1C#Cc1ccccn1` [Compound 254, 5-{4-[4-methoxy-3-(pyridin-2-ylethynyl)benzoyl]piperazin-1-yl}-4-nitrothiophene-2-sulfonamide], the inhibition constant Ki was 108 nM.
On the same count and under the same terms, the same measure for `COc1ccc(C(=O)N2CCN(c3cc4ccc(Cl)cc4cn3)CC2)cc1C#Cc1ccccn1` [Compound 260, 7-chloro-3-{4-[4-methoxy-3-(pyridin-2-ylethynyl)benzoyl]piperazin-1-yl}isoquinoline]: 951 nM.
Regarding `COc1ccc(C(=O)N2CCN(c3cc4ccc(Br)cc4cn3)CC2)cc1C#Cc1ccccn1` [Compound 261, 7-bromo-3-{4-[4-methoxy-3-(pyridin-2-ylethynyl)benzoyl]piperazin-1-yl}isoquinoline], the Ki stood at 1380 nM.
With `COc1ccc(C(=O)N2CCN(C(=O)c3ccccc3OC)CC2)cc1C#Cc1ccccn1` [Compound 263, 1-(2-methoxybenzoyl)-4-[4-methoxy-3-(pyridin-2-ylethynyl)benzoyl]piperazine], the Ki came to 169 nM.
Same read-out and setting: the value for `COc1cccc(C(=O)N2CCN(C(=O)c3ccc(OC)c(C#Cc4ccccn4)c3)CC2)c1` [Compound 264, 1-(3-methoxybenzoyl)-4-[4-methoxy-3-(pyridin-2-ylethynyl)benzoyl]piperazine] was 106 nM; that for `COc1ccc(C(=O)N2CCN(S(=O)(=O)c3ccc(Br)s3)CC2)cc1C#Cc1ccccn1` [Compound 269, 1-[(5-bromo-2-thienyl)sulfonyl]-4-[4-methoxy-3-(pyridin-2-ylethynyl)benzoyl]piperazine] was 49 nM; that for `COc1ccc(C(=O)N2CCN(S(=O)(=O)c3c(C)noc3C)CC2)cc1C#Cc1ccccn1` [Compound 270, 1-[(3,5-dimethylisoxazol-4-yl)sulfonyl]-4-[4-methoxy-3-(pyridin-2-ylethynyl)benzoyl]piperazine] was 1540 nM.
On the same count and under the same terms, the same measure for `COc1ccc(C(=O)N2CCN(c3cc(Cl)cc(Cl)c3)CC2)cc1C#Cc1ccccn1` [Compound 271, 1-(3,5-dichlorophenyl)-4-[4-methoxy-3-(pyridin-2-ylethynyl)benzoyl]piperazine]: 18 nM.
Turning to `COc1ccc(C(=O)N2CCN(S(=O)(=O)c3cccc4c(N(C)C)cccc34)CC2)cc1C#Cc1ccccn1` [Compound 273, 5-({4-[4-methoxy-3-(pyridin-2-ylethynyl)benzoyl]piperazin-1-yl}sulfonyl)-N,N-dimethylnaphthalen-1-amine], the inhibition constant (Ki) came out at 1740 nM.
On the same count and under the same terms, the same measure for `COc1ccc(C(=O)N2CCN(c3nnc([N+](=O)[O-])s3)CC2)cc1C#Cc1ccccn1` [Compound 276, 1-[4-methoxy-3-(pyridin-2-ylethynyl)benzoyl]-4-(5-nitro-1,3,4-thiadiazol-2-yl)piperazine]: 139 nM; for `COc1ccc(C(=O)N2CCN(Cc3c(Cl)cccc3Cl)CC2)cc1C#Cc1ccccn1` [Compound 277, 1-(2,6-dichlorobenzyl)-4-[4-methoxy-3-(pyridin-2-ylethynyl)benzoyl]piperazine]: 272 nM.
As to `COc1ccc(C(=O)N2CCN(S(=O)(=O)c3ccccc3Cl)CC2)cc1C#Cc1ccccn1` [Compound 278, 1-[(2-chlorophenyl)sulfonyl]-4-[4-methoxy-3-(pyridin-2-ylethynyl)benzoyl]piperazine], the inhibitory constant (Ki) worked out at 876 nM.
On the same count and under the same terms, the value for `COc1ccc(C(=O)N2CCN(S(=O)(=O)c3cccc(Cl)c3)CC2)cc1C#Cc1ccccn1` [Compound 279, 1-[(3-chlorophenyl)sulfonyl]-4-[4-methoxy-3-(pyridin-2-ylethynyl)benzoyl]piperazine] was 832 nM; that for `COc1ccc(C(=O)N2CCN(c3nc(-c4ccccc4)ns3)CC2)cc1C#Cc1ccccn1` [Compound 281, 1-[4-methoxy-3-(pyridin-2-ylethynyl)benzoyl]-4-(3-phenyl-1,2,4-thiadiazol-5-yl)piperazine] was 197 nM; that for `COc1ccc(C(=O)N2CCN(c3nnc(-c4ncc([N+](=O)[O-])n4C)s3)CC2)cc1C#Cc1ccccn1` [Compound 283, 1-[4-methoxy-3-(pyridin-2-ylethynyl)benzoyl]-4-[5-(1-methyl-5-nitro-1H-imidazol-2-yl)-1,3,4-thiadiazol-2-yl]piperazine] was 2310 nM.

The assay is the same for the next values; noted with them: single point, @ 10 μM compound; Table 7A; read-out: PCT INHIB (%) @ 10 μM.
For the compound `COc1ccc(C(=O)N2CCN(c3ccccn3)CC2)cc1/C=C/c1ccccc1` [Compound 182, 1-{4-methoxy-3-[(E)-2-phenylvinyl]benzoyl}-4-pyridin-2-ylpiperazine], the inhibition at 10 µM turned out to be 86%.

Source of the values: US20090325964A1, “Piperazine Metabotropic Glutamate Receptor 5 (MGLUR5) Negative Allosteric Modulators For Anxiety/Depression” (Wyeth, priority 2008, published 2009).
